Laboratory results published in paper PMC11547513, “Design, Synthesis and Biological Activity Evaluation of β-Carboline Derivatives Containing Nitrogen Heterocycles” (Molecules, 2024).
“And” between values parts separate entries of the source, which are not always exact repeats. Equal values may be shown once. Read-outs that look alike come from different tables or passages of the source.

Assays:
[1] = tested on: Cyclin D1; assay: Western blot of Cyclin D1 expression in PC-3 cells; format: cell-based, human; settings: 30 μM, 24 h, β-Tubulin internal reference
Experimental: (§1) To analyze the effect of compound 8q on cell cycle, the cycle of PC-3 cells was detected after being treated with compound 8q for 24 h (Figure 5). […] In addition, Cyclin D1, a cell cycle-related protein, is a key regulator of cycle progression, mainly regulating G1/S phase transition. […] In summary, compound 8q can arrest cells in the G0/G1 phase. […]
2.6.Effects of 8q on expression of cell cycle related protein
PC-3 cells were seeded in six-well plates at a density of 3 × 10^5 per well and incubated in 5 % CO2 incubator at 37 ℃ for 24 h. Then different concentrations of 8q and Harmine were added to continue cultivation for 24 h. The prepared 1× RIPA lysis buffer (Solarbio, Beijing, China), as well as protease (Solarbio, Beijing, China) and phosphatase inhibitors (Solarbio, Beijing, China), were added to the well in a ratio of 100:1:1. The cells were scraped off and then lysed on ice for 40 min. Mixed liquid was centrifuged, and the supernatant used the BCA protein assay kit (Beyotime, Shanghai, […]
China) to measure protein concentration. 12.5% SDS-PAGE gel was used to separate the extracted total protein, which was transferred onto a PVDF membrane and sealed with 5% skim milk for 2.5 h. After that, primary antibodies included β-Tubulin and Cyclin D1 were added and incubated overnight at 4 ℃. […]

[2] = tested on: K562 (human chronic myeloid leukemia cell); assay: MTT assay, in vitro cytotoxicity on K562
Text: (§2) Cells were purchased from the Cell Bank of the Chinese Academy of Sciences (Kunming, China).

[3] = tested on: PC-3 (human prostate cancer cell); assay: MTT assay, in vitro cytotoxicity on PC-3
Text: as §2

[4] = tested on: A549 (human lung cancer cell); assay: MTT assay, in vitro cytotoxicity on A549
Text: as §2

[5] = tested on: PC-3 cells; assay: Annexin V-FITC/PI apoptosis, flow cytometry; format: cell-based, human; settings: 10 μM
Text: Apoptosis is an important target for antitumor therapy. To explore the antitumor mechanism of compound 8q, cell apoptosis was detected using flow cytometry. […] Moreover, reactive oxygen species (ROS) play a significant role in cell growth, differentiation and apoptosis. Excessive ROS can cause oxidative damage and lead to cell apoptosis. […]
2.3.The effect of compound 8q on cell apoptosis
We used Annexin V-FITC/ PI double staining to evaluate cellular apoptosis via flow cytometry to figure out if apoptosis participates in the inhibition of cell growth.
PC-3 cells were seeded in a six-well plate at a density of 3 × 105, and cultured at 37 ℃ and 5% CO2 for 24 h before adding 10 μM. 20 μM and 30 μM compound 8q and 30 μM Harmine to each well. After 48 h, the cells were collected and stained and incubated flowing the manufacturer ’s protocol of the Annexin V-FITC/PI Apoptosis Detection Kit (Solarbio, Beijing, China). After completion, the cells were immediately detected on the Flow Cytometry (Solarbio, Beijing, China). The experimental results were processed using Flow Jo and Prism 7.04 software. […]

[6] = tested on: PC-3 cells; assay: Wound healing assay; format: cell-based, human; settings: 24 h, control group 46.41%
Experimental: Given that cell migration plays a pivotal role in tumor cell invasion, to further validate the impact of compound 8q on PC-3 cell motility, a wound healing assay was conducted. […] These findings underscore the potent inhibitory effect of compound 8q on the motility of PC-3 cells. […]
a wound healing assay was performed using the method we previously reported1. In short, PC-3 cells were seeded in a six-well plate at a density of 10 × 105 and incubated at a constant temperature of 37 ℃ and 5% CO2 for 24 h. Then the pipette tip was used to create a uniform wound on the surface of cells. Subsequently, after cleaning twice with PBS, the scratch healing of the 8q treatment group and the positive drug treatment […]
was used to measure and quantify cell migration. […]

[7] = tested on: T47D (human breast cancer cell); assay: MTT assay, in vitro cytotoxicity on T47D
Text: as §2

[8] = tested on: Hek-293T (human embryonic kidney cells); assay: MTT assay, in vitro cytotoxicity on normal Hek-293T; settings: read-out: Inhibitory Activity/% at 10 μM, Hek-293T
Text: as §2

[9] = tested on: PC-3 cells; assay: Cell cycle assay (PI, flow cytometry); format: cell-based, human; settings: 24 h; for Cell cycle distribution, S phase: negative control 20.8%; for Cell cycle distribution, G2/M phase: negative control 23.6%; for Cell cycle distribution, G0/G1 phase: negative control 50.6%
Experimental: as §1
2.5. Cell cycle arrest of compound 8q on PC-3
To determine the effect of compound 8q on the cell cycle distribution of PC-3 cell, we used our previous method with slight modifications2. Briefly, cells were incubated in a six-well plate with a density of 3 × 105 at 37 ℃ and 5% CO2 for 24 h, followed by the addition of different concentrations of compound 8q for further incubation for 24 h.
Next, the cells were collected and washed twice with PBS. 75% anhydrous ethanol was used to immobilize the cells under overnight conditions at 4 ℃. Subsequently, PBS washed cells, and RNase from the cell cycle assay kit (Solarbio, Beijing, China) was added and incubated in a constant temperature (37 ℃) water bath for 30 min. Then PI was added under dark conditions and incubated at 4 ℃ for another half hour to detect.
The distribution of cycles was analyzed by Flow Jo and Prism 7.04 software. […]

[10] = tested on: PC-3 cells; assay: Colony formation assay; format: cell-based, human; settings: Figure 3A

melting point: 181.8 to 182.7 °C
Compound: COc1cc(-c2nc(-c3nnc(SCC(=O)Nc4ccc(CN5CCOCC5)cc4)o3)cc3c2[nH]c2ccccc23)cc(OC)c1OC [Compound 8q, N-(4-(morpholinomethyl)phenyl)-2-((5-(1-(3,4,5-trimethoxyphenyl)-9H-pyrido[3,4-b]indol-3-yl)-1,3,4-oxadiazol-2-yl)thio)acetamide]
Expression of Cyclin D1 [1]: significantly downregulated | IC50 ([2]; Homo sapiens, K562, read-out: IC50 (Mean ± S.D.), K562, average of three replicates): 11.2 µM | inhibition at 10 µM ([2]; Homo sapiens, K562, read-out: Inhibitory Activity/% at 10 μM, K562): 25.6 ± 14.9% | IC50 ([2]; read-out: IC50 (Mean ± S.D.), K562, average of three replicates): 11.7 ± 0.21 µM | IC50 ([3]; Homo sapiens, read-out: IC50 (Mean ± S.D.), PC-3, average of three replicates): < 10 µM | inhibition at 10 µM ([3]; Homo sapiens, read-out: Inhibitory Activity/% at 10 μM, PC-3, Table 2 (8 series), 10 μM, average of three replicates, "/" means no anticancer activity): 46.1 ± 0.74% | IC50 ([3]; read-out: IC50 (Mean ± S.D.), PC-3, average of three replicates): 9.86 ± 1.03 µM | IC50 ([4]; A549, read-out: IC50 (Mean ± S.D.), A549): 26.2 ± 1.51 µM | inhibition at 10 µM ([4]; A549, read-out: Inhibitory Activity/% at 10 μM, A549): 32.9 ± 4.3% | Total apoptosis rate in PC-3 cells ([5]; 48 h): 63.23% | Annexin V-FITC/PI flow cytometry quadrant Q1 ([5]; Figure 4A): 0.35 | Annexin V-FITC/PI flow cytometry quadrant Q2 ([5]; Figure 4A): 22.7 | Annexin V-FITC/PI flow cytometry quadrant Q3 ([5]; Figure 4A): 32.9 | Annexin V-FITC/PI flow cytometry quadrant Q4 ([5]; Figure 4A): 44.1 | Migration rate of PC-3 cells ([6]; 10 μM): 29.56% | Migration rate of PC-3 cells ([6]; 20 μM): 26.32% | Migration rate of PC-3 cells ([6]; 30 μM): 19.99% | IC50 ([7]; read-out: IC50 (Mean ± S.D.), T47D): 9.96 ± 0.63 µM | inhibition at 10 µM ([7]; read-out: Inhibitory Activity/% at 10 μM, T47D): 14.5 ± 7.43% | inhibition at 10 µM [8]: 54.8 ± 0.99% | Cell cycle distribution, S phase ([9]; 10 μM): 14.2% | Cell cycle distribution, G2/M phase ([9]; 10 μM): 20.8% | Cell cycle distribution, G0/G1 phase ([9]; 10 μM): 55.66% and 58.5% | Cell cycle distribution, S phase ([9]; 20 μM): 13.0% | Cell cycle distribution, G2/M phase ([9]; 20 μM): 18.4% | Cell cycle distribution, G0/G1 phase ([9]; 20 μM): 60.83% and 63.0% | Cell cycle distribution, S phase ([9]; 30 μM): 9.01% | Cell cycle distribution, G2/M phase ([9]; 30 μM): 20.5% | Cell cycle distribution, G0/G1 phase ([9]; 30 μM): 62.03% and 64.9% | Inhibition of colony formation (proliferation) of PC-3 cells [10]: concentration-dependent manner
